In PMC10485906, “Development of a Dihydroquinoline–Pyrazoline GluN2C/2D-Selective Negative Allosteric Modulator of the N-Methyl-D-aspartate Receptor” (ACS Chemical Neuroscience, 2023):
Read-outs that look alike come from different tables or passages of the source.

Key:
Tsc1^± mice = tested on: Tsc1^± mice; set-up: method as in PMID 25081057; settings: 28 mg/kg IP; heterozygote Tsc1^± mice; cited from earlier work
GluN1/GluN2D [1] = biological target: T1, GluN1/GluN2D (Rattus norvegicus, UniProt Q62645); assay: Whole-cell voltage-clamp recordings, HEK cells, GluN1/GluN2D (agonist dependence); format: cell-based
Source text: (§1) We previously described the actions of the GluN2C/GluN2D-preferring negative allosteric modulator DQP-1105 as dependent on glutamate (but not glycine) binding, in that DQP-1105 affinity increases after GluN1/GluN2D NMDARs bind glutamate.[32] […] The concentration-dependent relaxation is indicative of an agonist-induced increase in potency that leads to re-equilibration of the inhibitor after agonist binding induces an increase in inhibitor affinity. We investigated the glutamate dependence of compound 2i (GluN1/GluN2D, Figure 4; GluN1/GluN2C, Figure S2), DQP-1105 (Figure S1), and compound (S)-2a (DQP-69;[33]Figure S3) using the same protocols.
(§2) We preincubated cells with glycine and the inhibitor 2i (DQP-997-74) and compared inhibitor potency during the peak and steady-state current responses to glutamate application. […] To investigate the time course of 2i inhibition, we fitted the relaxation of the current response with a single exponential function. If the current response time course reflects 2i binding, then the reciprocal of τinhibition should be linearly related to its concentration, with the slope equal to kON and intercept equal to kOFF. […] The deactivation of GluN1/GluN2D receptors (5.3 ± 0.2 s) was slowed by the presence of compound 2i when applied at concentrations of 0.1 μM (7.3 ± 0.3 s; p = 0.017) and 0.3 μM (10.5 ± 1.0 s; p = 0.002) but not at 0.03 μM (5.6 ± 0.3 s; p = 0.518; Figure 4E). […] This phenomenon was previously discovered for QNZ-46, a glutamate-dependent GluN2C/2D-selective inhibitor with a different structural core.[42] As proposed in that study, the prolonged deactivation may indicate that 2i slows a conformational change necessary for glutamate unbinding or 2i may need to unbind before glutamate can unbind.
(§3) In addition, we evaluated how glutamate dependence affects inhibition of responses to brief agonist applications similar to phasic glutamate release that occurs at synapses. To do so, we preincubated cells expressing GluN1/GluN2D receptors with the inhibitor 2i and then applied trains of five brief pulses of NMDA (which dissociates more rapidly than glutamate) and glycine from a pressurized micropipette to mimic repetitive synaptic transmission (Figure 4F). We measured the peak amplitude and compared the concentration–response curves for the inhibition of the first and last response (Figure 4G). The initial train of pulses in the absence of drug controls for systematic errors such as internalization of receptors.
(§4) To further evaluate whether 2i followed the law of mass action, we coapplied different concentrations of 2i with glutamate during the steady-state glutamate and glycine responses of GluN1/GluN2D receptors expressed in HEK cells (Figure 4H). […] We also fitted the onset and offset time course of the inhibition produced by compound 2i with a single exponential function (Figure 4J).
(§5) HEK293 cells (HEK, ATCC CRL-1573) were plated on glass coverslips pretreated with 0.1 mg/mL poly-D-lysine and cultured in Dulbecco’s modified Eagle medium (DMEM) plus Glutamax (GIBCO 10569-10) supplemented with 10% fetal bovine serum, 10 U/mL of penicillin, and 10 μg/mL of streptomycin at 37 °C and 5% CO2. The cells were transiently transfected with cDNA encoding rat GluN1, GluN2D, and eGFP at a ratio of 1:1:5 by using the calcium phosphate precipitation method.[48] After 24–48 h following the transfection, the cells were perfused with external recording solution that contained (in mM) 3 KCl, 150 NaCl, 0.01 EDTA, 1.0 CaCl2, 10 HEPES, and 22 D-mannitol (the pH was adjusted to 7.4 with NaOH). The patch electrodes (resistance 3–5 MΩ) were prepared from thin-walled glass micropipettes (TW150F-4, World Precision Instruments, Sarasota, FL) by a dual-stage glass micropipette puller (PC-10, Narishige, Tokyo, Japan) and filled with internal solution containing (in mM) 110 D-gluconate, 110 CsOH, 30 CsCl, 5 HEPES, 4 NaCl, 0.5 CaCl2, 2 MgCl2, 5 BAPTA, 2 NaATP, and 0.3 NaGTP. […]

GluN1/GluN2D [2] = biological target: GluN1/GluN2D (Rattus norvegicus, UniProt P35439+Q62645); assay: as above; format: cell-based
Source text: as §1, §2, §3, §4, §5

GluN1/GluN2D [3] = biological target: T1, GluN1/GluN2D; set-up: GluN2B (NM_012574.1), GluN2C (NM_012575.3), and GluN2D (NM_022797.2) were provided by; expressed in transfected cells; host or cells: Xenopus laevis oocytes (cRNA injection); settings: cited from earlier work

Sequence of GluN1/GluN2D (Rattus norvegicus, UniProt P35439+Q62645) (Q62645 28-1323, other chains not shown): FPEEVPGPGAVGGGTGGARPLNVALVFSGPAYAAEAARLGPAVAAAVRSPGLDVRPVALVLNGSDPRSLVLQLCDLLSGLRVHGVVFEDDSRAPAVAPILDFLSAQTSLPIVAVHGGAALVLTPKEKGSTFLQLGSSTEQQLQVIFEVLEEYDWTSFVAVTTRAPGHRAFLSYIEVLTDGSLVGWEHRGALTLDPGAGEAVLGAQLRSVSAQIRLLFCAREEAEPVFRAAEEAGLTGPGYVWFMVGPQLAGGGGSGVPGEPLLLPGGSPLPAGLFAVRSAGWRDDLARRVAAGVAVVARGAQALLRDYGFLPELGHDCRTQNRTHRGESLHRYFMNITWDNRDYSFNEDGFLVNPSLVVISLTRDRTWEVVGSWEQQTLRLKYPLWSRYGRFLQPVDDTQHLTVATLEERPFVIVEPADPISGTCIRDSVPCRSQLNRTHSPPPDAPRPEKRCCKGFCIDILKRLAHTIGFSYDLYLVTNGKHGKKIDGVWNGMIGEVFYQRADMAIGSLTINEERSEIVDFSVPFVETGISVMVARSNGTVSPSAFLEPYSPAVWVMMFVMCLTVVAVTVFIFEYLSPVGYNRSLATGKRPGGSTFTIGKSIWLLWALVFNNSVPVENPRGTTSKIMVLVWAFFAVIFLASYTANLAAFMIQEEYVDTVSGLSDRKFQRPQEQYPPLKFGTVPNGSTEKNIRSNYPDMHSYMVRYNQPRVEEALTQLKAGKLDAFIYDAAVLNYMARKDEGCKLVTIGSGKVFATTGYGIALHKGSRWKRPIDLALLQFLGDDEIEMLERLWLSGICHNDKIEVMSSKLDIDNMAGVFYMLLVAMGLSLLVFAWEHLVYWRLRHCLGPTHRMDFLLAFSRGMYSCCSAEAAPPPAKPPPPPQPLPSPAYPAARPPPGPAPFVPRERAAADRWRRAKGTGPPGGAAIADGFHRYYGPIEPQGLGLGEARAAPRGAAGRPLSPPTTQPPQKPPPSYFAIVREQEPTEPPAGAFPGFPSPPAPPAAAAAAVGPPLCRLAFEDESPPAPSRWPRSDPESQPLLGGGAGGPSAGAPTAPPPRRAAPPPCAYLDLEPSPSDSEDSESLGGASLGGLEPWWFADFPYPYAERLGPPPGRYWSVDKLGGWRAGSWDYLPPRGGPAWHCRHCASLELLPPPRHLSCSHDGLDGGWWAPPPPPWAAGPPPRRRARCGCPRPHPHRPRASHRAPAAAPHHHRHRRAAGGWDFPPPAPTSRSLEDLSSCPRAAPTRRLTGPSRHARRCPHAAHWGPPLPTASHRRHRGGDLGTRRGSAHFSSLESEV
T1 sequence (Q62645 28-1323, other chains not shown): as above

- τdeactivation following glutamate removal (GluN1/GluN2D [1]; 0.3 μM compound, mean ± SEM): 6.6 ± 0.3 s
- τdeactivation following glutamate removal (GluN1/GluN2D [1]; 1 μM compound, mean ± SEM): 6.9 ± 0.4 s
- τdeactivation following glutamate removal (GluN1/GluN2D [1]; 3 μM compound, mean ± SEM): 8.0 ± 0.4 s
- fold-change in IC50 for the peak and steady-state current responses (GluN1/GluN2D [1]; mean ± SEM, compared by ANOVA): 2.1 ± 0.2
- IC50 fold higher during peak compared to steady-state (GluN1/GluN2D [1]; ratio of IC50 values): 1.9 fold
- IC50 fold higher at first pulse compared to fifth pulse (GluN1/GluN2D [1]; trains of brief agonist applications): 3 fold
- koff (GluN1/GluN2D [2]; HEK293, inhibitor preapplied, linear regression of 1/τinhibition vs concentration): 0.19 s⁻¹
- IC50 (GluN1/GluN2D [2]; fifth of 5 brief NMDA (500 μM)/glycine (250 μM) pulses at 1 s intervals, read-out: IC50 pulse 5 (95% CI)): 1.6 µM
- IC50 (GluN1/GluN2D [2]; first of 5 brief NMDA (500 μM)/glycine (250 μM) pulses at 1 s intervals, read-out: IC50 pulse 1 (95% CI)): 4.9 µM
- Kd (GluN1/GluN2D [2]; inhibitor preapplied, from kON and kOFF, supplement): 0.4 µM
- IC50 (GluN1/GluN2D [2]; peak current response to glutamate, inhibitor preapplied, read-out: IC50 peak (95% CI)): 1.4 µM
- IC50 (GluN1/GluN2D [2]; steady-state current response to glutamate, inhibitor preapplied, read-out: IC50 steady-state (95% CI)): 0.72 µM
SMILES: Cc1ccc2[nH]c(=O)c(C3=NN(C(=O)CCC(=O)O)C(c4ccc(Br)cc4)C3)c(-c3ccccc3)c2c1 (centres unmarked) [compound 1, reference compound]
- effect on seizure burden (Tsc1^± mice): diminished seizure burden
- IC50 (GluN1/GluN2D [3]): 2.7 µM
